In US11291684B2, “Treatment of glaucoma” (TX MEDIC AB, priority 2017, dated 2022):

Test system: Schwann cells
Test: Gene expression (microarray) in cultured Schwann cells
Format: cell-based, Human
Protocol: n=8×25 cm^2 culture flasks were set up. Two flasks were harvested on the day of treatment (24 hours after seeding). This represents the Day0 time point. From the remaining flasks, three flasks were treated with Control Medium and three were treated with Culture Medium (CM) containing dextran sulfate to give a final concentration of 0.01 mg/ml. Cells from the treated flasks were collected after 48 hours. Therefore the collected data represent (a) untreated cells (Day0 Controls and Day2 Controls) and (b) cells treated with dextran sulfate for 48 hours (Day2 dextran sulfate treated).
25 cm^2 flasks were coated by adding 2 ml per flask of a solution of 50 μg/ml poly-d-lysine in Hank's balanced salt solution (HBSS) and incubating overnight at 37° C. in the dark. Flasks were washed with cell culture water and air-dried for 30 min in the dark. Flasks were coated by adding 1 ml per flask of a solution of 25 μg/ml laminin in phosphate-buffered saline (PBS) and incubating for 2 hour at 37° C. in the dark. The laminin flasks were washed with PBS three times before plating cells.
Schwann cells growth medium was prepared by adding 10% of fetal bovine serum (FBS) to high-glucose DMEM and pre-warmed to 37° C. Cells were thawed in a 37° C. water bath for no longer than 2 min.
Cells from 12 vials were each gently transferred to a tube containing 10 ml of high-glucose DMEM medium and centrifuged at 400 relative centrifugal field (RCF) for 10 min. Pellet was resuspended in culture medium. The cells from the 12 vials were mixed and distributed equally into the previously coated 25 cm^2 flasks (n=8). Cells were incubated at 37° C. with 5% CO2. Cells were allowed to settle for 24 hours before dextran sulfate treatment.
Dextran sulfate (Tikomed AB, Sweden, WO 2016/076780) was provided at a stock concentration of 20 mg/ml and was kept in a temperature monitored refrigerator at 4° C. A fresh 100× dextran sulfate stock (1.0 mg/ml) was prepared in sterile DMEM-F12. The concentrated drug stock was sterile filtered and added to the respective culture media (19.6 ml CM and 0.4 ml dextran sulfate stock solution). The Control was made using 19.6 ml CM and 0.4 ml of DMEM-F12. Dextran sulfate and CM were added to the respective flasks (5 ml each) to reach the 0.01 mg/ml concentration of dextran sulfate in each dish with a total of 10 ml CM each.
CM was aspirated into a clean and labelled 15 ml Falcon tube. The flasks (without culture medium) were placed into the −80° C. freezer for 30 minutes. The CM in the Falcon tubes were spun at 3000×g for 5 minutes. Supernatant was removed and the small pellet was re-suspended in 2.5 ml Trizol:Water (4:1) solution at room temperature (RT, ˜22° C.).
The frozen flasks were removed one-by one from the freezer and the Trizol-Water from the appropriate tubes was moved to the flask. Flasks were left at RT for 5 minutes before the content was aspirated back into the 15 ml Falcon tube (after washing the bottom of the flask with the solution thoroughly). The flasks were inspected under the microscope to ensure full removal of cells. The collected lysates in the 15 ml Falcon tubes were placed into the −80° C. freezer.
Two aliquots of 1 ml lysate was removed from each sample and 200 μl of chloroform was added to each (0.2 ml of chloroform per 1 ml of TRIzol Reagent used during the cell lysis step) and the tube was shaken vigorously. Samples were stored at RT for 2-3 minutes and subsequently centrifuged at 12,000×g for 15 minutes at 4° C.
The RNA was precipitated from the aqueous phase by adding an equal amount of 100% ethanol. The precipitated RNA was fixed onto a Spin Cartridge, washed twice and dried. The RNA was eluted in 50 μl warm RNase-Free Water. The amount and quality of the purified RNA was measured by Nanodrop. The RNA was stored at −80° C. before transfer to Source Bioscience for Array analysis.
The expression data were downloaded into separate files for each cell line. […]

## dextran sulfate
0.01 mg/ml, 48 hours
  effect on cell adhesion and movement in Schwann cells: promoted cell detachment and movement
D0 control vs D2 dextran sulfate treated, 0.01 mg/ml, 48 hours
  differentially expressed genes: 1244 genes
D2 control vs D2 dextran sulfate treated, 0.01 mg/ml, 48 hours
  differentially expressed genes: 700 genes
Schwann cells, 0.01 mg/ml, 48 hours
  increase in decorin expression, fold change: 1.242
No effect
  genes: abolished nutrient effect: 21
  genes: total: 21
Significant downregulation
  genes: abolished nutrient effect: 1
  genes: enhanced response to nutrients: 122
  genes: new effect induced by dextran sulfate: 352
  genes: not different from control: 42
  genes: total: 517
Significant upregulation
  genes: abolished nutrient effect: 13
  genes: enhanced response to nutrients: 441
  genes: new effect induced by dextran sulfate: 74
  genes: not different from control: 373
  genes: total: 901
total
  genes: abolished nutrient effect: 35
  genes: enhanced response to nutrients: 563
  genes: new effect induced by dextran sulfate: 426
  genes: not different from control: 415
  genes: total: 1439
